{"source": "paper PMC5839340", "about": "(Biochemistry, 2018)", "key": {"[1]": {"biological_target": "Hsc70 (Mus musculus, UniProt P63017)", "sequence (P63017 5-554)": "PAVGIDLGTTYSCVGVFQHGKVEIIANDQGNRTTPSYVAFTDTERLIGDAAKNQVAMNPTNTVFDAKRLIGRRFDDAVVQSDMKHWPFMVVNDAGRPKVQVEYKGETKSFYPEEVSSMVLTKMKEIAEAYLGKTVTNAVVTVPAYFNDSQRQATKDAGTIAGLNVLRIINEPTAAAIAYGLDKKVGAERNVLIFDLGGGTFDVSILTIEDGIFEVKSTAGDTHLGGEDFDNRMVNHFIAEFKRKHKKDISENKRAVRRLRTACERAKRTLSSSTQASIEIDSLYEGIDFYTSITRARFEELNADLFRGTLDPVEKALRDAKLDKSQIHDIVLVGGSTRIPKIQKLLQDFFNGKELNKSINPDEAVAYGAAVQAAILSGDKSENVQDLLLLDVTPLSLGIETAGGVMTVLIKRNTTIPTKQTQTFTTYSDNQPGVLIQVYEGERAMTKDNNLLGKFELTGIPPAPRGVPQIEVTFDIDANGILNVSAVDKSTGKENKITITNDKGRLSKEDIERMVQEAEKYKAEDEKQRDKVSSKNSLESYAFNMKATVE", "test": "DRaCALA with [α-32P]ATP", "assay_type": "binding"}, "[2]": {"biological_target": "Hsc70 C17W (Mus musculus, UniProt P63017, C17W)", "sequence (P63017 5-554 C17W)": "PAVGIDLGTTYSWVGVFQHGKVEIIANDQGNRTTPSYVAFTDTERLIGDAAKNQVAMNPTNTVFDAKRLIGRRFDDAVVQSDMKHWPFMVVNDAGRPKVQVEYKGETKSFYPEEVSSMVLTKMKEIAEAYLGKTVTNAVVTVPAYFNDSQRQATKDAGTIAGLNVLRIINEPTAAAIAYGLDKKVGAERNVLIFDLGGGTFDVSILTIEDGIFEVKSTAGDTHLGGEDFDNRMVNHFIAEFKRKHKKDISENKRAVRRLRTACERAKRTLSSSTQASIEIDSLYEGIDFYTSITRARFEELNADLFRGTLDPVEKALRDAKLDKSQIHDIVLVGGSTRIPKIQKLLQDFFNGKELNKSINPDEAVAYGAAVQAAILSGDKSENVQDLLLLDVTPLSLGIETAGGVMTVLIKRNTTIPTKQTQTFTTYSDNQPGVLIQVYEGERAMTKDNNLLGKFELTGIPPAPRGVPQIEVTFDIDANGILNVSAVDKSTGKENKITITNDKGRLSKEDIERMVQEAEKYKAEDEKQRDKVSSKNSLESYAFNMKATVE", "test": "DRaCALA with [α-32P]ATP", "assay_type": "binding"}}}
{"smiles": "Nc1ncnc2c1ncn2[C@@H]1O[C@H](COP(=O)(O)OP(=O)(O)OP(=O)(O)O)[C@@H](O)[C@H]1O", "note": "[ATP]", "values": [{"measurement": "Kd", "setting": "[1]", "result": "210 ± 40", "unit": "nM"}, {"measurement": "Kd", "setting": "[2]", "result": "160 ± 60", "unit": "nM"}]}
